The record followed here is a melting point compilation (Tetko et al.; mined from patent text by program, amines drawn as free bases though some values may be those of a salt).

In general, melting point refers to the temperature, or range, at which the solid turns liquid.

Where only a bound is given, the exact number is not on record here.

In turn, `COc1ccc(Cn2c(=S)[nH]c(=S)c3[nH]c(C(C)C)nc32)cc1OC1CCCC1` showed a melting point of 204 to 206 °C. As for `O=Cc1ccc(C#Cc2ccc(Cl)cc2)cc1`, the melting point worked out at 123 °C. Take `COc1cc(C(=O)c2ccccc2)c(O)c2c1C(C)(C)CCC2(C)C`: the melting point amounted to 85 °C. As to `COc1cc(COc2nn(-c3ccccc3)cc2/C=C/P(=O)(OC)OC)ccc1OCc1nc(-c2ccco2)oc1C`, the melting point was in the range of 107 to 108 °C. `CSC(=NCCSCc1nccs1)NC(=O)c1ccccc1` registered a melting point of 64 to 65 °C.

As for `O=C(c1ccc(F)cc1)N1CC2CC2(c2ccc(Cl)cc2)C1` (configuration not stated), the melting point was in the range of 130 to 132 °C. The compound `COC(=O)c1nn(C2CCCCO2)cc1NC(=O)c1ccccc1` (configuration not stated) returned a melting point of 124 to 125 °C. `CC/C(=C(\c1ccc(/C=C/C(=O)O)cc1)c1ccc(OC(=O)OC)cc1)c1ccccc1` registered a melting point of 140 to 142 °C. As for `CCOC(=O)c1ncn2c1CN=C(NCC(OC)OC)c1ccccc1-2`, the melting point lay in the range of 121 to 122 °C. Regarding `N#CC(C#N)=C1C=C(c2ccsc2)S(=O)(=O)C(c2ccsc2)=C1`, the melting point fell in the range of 275 to 285 °C. Take `CCOC(=O)CCn1c(=O)n2cc(C)cc2c2ccccc21`: the melting point is 74 to 76 °C. To `CCOC(=O)C(C)Sc1nc(-c2cc(C(C)(C)C)c(O)c(C(C)(C)C)c2)c[nH]1` (configuration not stated) belongs 80 to 82 °C; to `COC(=O)C(C)(C)c1ccc(C(=O)Nc2cn3cc(-c4cn[nH]c4)ccc3n2)cc1`, 248 to 249 °C; to `CCn1cc(C(=O)NCCc2ccncc2)c(=O)c2cnc(N3CCCC3)nc21`, 175 to 177 °C. For `N#CCc1cccc(CBr)c1[N+](=O)[O-]`, the melting point lay within 71 to 73 °C. To `Cc1cc(=O)[nH]c(NC(=N)Nc2ccccc2)n1` belongs 265 °C; to `Cn1ncnc1COc1nn2c(-c3ccccc3Cl)nncc2c1-c1ccccc1F`, 155 to 157 °C; to `Cc1cc(OC(=O)c2ccccc2)c2ccccc2c1OCc1ccccc1`, 179 to 180 °C. Regarding `Cc1cc2cc(CN3CCCCCC3)cnc2cc1NC(=O)c1ccc(-c2cc3ccccc3o2)cc1`, the melting point was determined as 207 °C.

`Nc1cccc(C(=O)O)c1S` had a melting point of 255 to 258 °C. To `O=C(c1ccc2nonc2c1)N1CC2CCC1CC2` belongs 138 to 139 °C; to `c1ccc(COc2cccc3c2nc2n3CCCO2)cc1`, 183 to 184 °C; to `COc1cc(N)c(Cl)cc1C(=O)NN1CCN(Cc2cccs2)CC1`, 225 to 226 °C.

Take `COc1cc2ccc3c4cc(OCc5ccccc5)c(OC)cc4nnc3c2cc1OC`: the melting point was 244 to 246 °C. To `Cc1cccc2c1NC(=O)CC2(C)C` belongs 120 °C; to `CCCCCCCCCCc1cc(C=O)on1`, 46 to 48 °C; to `COc1ccccc1OCC1SCCN1C(=S)CC(=O)c1cc(OC)c(OC)c(OC)c1` (configuration not stated), 110 to 112 °C. The compound `NCCCCNC(=O)C(=O)NCCCCN` gave a melting point of 106 to 108 °C. Take `CC1=CC(c2cccc(OC(F)(F)F)c2)C2=C(CCCC2=O)N1` (configuration not stated): the melting point fell in the range of 144 to 146 °C. To `COc1ccc(-c2cnoc2-c2ccc(OC(C)C)cc2O)cc1` belongs 148 to 149 °C. `Cc1nc(-n2ccc(O)cc2=O)sc1C(=O)NCCC1CC1` returned a melting point of 234 to 236 °C. On to `C=C1CCC2C3CCC4CC(O)C(OCC)CC4(C)C3C(=NO)CC12C` (configuration not stated), for which the melting point is 97 to 99 °C. `COC(=O)COc1ccc(OC)cc1NC(=O)c1ccc(OCCCCc2ccccc2)cc1` gave a melting point of 91 to 93 °C.

`C#CCn1c(=O)c2ccccc2c(=O)c2ccccc21` had a melting point of 117 to 118 °C. Turning to `CCCCOc1nc(N)c2nc(OC)n(CCSc3cccc(CC(=O)O)c3)c2n1`, the melting point was 205 to 207 °C. For `COc1ccc(C(N2CCN(c3ncccn3)CC2)N2CCCC2=O)cc1` (configuration not stated), the melting point was in the range of 166 to 170 °C.

`CC1=C(C(=O)OCCCl)C(c2cccc([N+](=O)[O-])c2)C(C(=O)OCC(C)C)=C(C)N1` (configuration not stated) showed a melting point of 150 to 153 °C.

In the case of `N#CCOc1cccc2[nH]c3ccccc3c12`, the melting point came out at 120 °C.

`O=[N+]([O-])c1cnc(Sc2nnc(O)n2-c2ccccc2)s1` gave a melting point of 188 to 190 °C. `COc1cc(CN[C@@H](C(=O)N[C@H](C(=O)NCc2ccc(OC)cc2O)C(C)C)[C@H](O)[C@H](Cc2ccccc2)NC(=O)OC(C)(C)C)cc(OC)c1` registered a melting point of 138 °C. The compound `Cc1ccccc1Nc1nc(N(C)c2ccccc2)c2cccc(O)c2n1` showed a melting point of 174 to 175 °C. `CCNc1ccc(Cl)cc1C(=O)c1ccccc1` displayed a melting point of 57 to 58 °C. In the case of `COc1cccc2c(=O)c3c(O)cc(OCC(S)CCl)cc3oc12` (configuration not stated), the melting point was 125 °C. For `COc1cc(OC)cc(-c2nc[nH]c2-c2ccc(OC)c(O)c2)c1`, the melting point lay in the range of 181 to 182 °C.

Consider `Cc1cccc(CNC(=O)CC#N)c1`, for which the melting point fell in the range of 110 to 112 °C. `CCCC(=O)c1cc(C(=O)O)c2cc(Cc3ccc(F)cc3)cnc2c1O` had a melting point of 232 to 234 °C. As for `O=C(O)c1ccc2oc3ncccc3c(=O)c2c1`, the melting point lay in the range of 293 to 294 °C. To `OC(c1ccccc1)c1cc2cc(Br)ccc2o1` (configuration not stated) belongs 56 to 58 °C; to `O=C1NC2(C(=O)CCl)C=CC1C2` (configuration not stated), 86 to 88 °C. Regarding `COc1cc(NC(=O)Nc2c(-c3ccccc3Cl)c3cc(C)c(C)cc3n(C)c2=O)cc(OC)c1OC(C)=O`, the melting point fell in the range of 233 to 234 °C. To `Cn1ccnc1-c1ccccc1Nc1nc(Nc2ccc3c(c2)C(C)(C)CCC(=O)N3)ncc1Cl` belongs 227 °C; to `CC=CC(=O)Nc1cc(C(C)(C)C)c(O)c(C(C)(C)C)c1`, 211 to 214 °C; to `Cc1ccc2[nH]c(S(=O)(=O)CC(F)(F)F)nc2c1`, 160 to 161 °C.

On to `COC(=O)c1ccc(C(=O)NS(=O)(=O)c2ccc(CCNC(=O)Cc3ccc(OC)c(OC)c3)cc2)cn1`, for which the melting point lay within 164 to 169 °C. In turn, `CC(C)NCc1ccc(Cn2ccc(OCc3ccc(F)cc3F)c(Cl)c2=O)cc1` returned a melting point of 146 to 151 °C. As for `CN(C)C(=O)CCO[C@H]1CC[C@H](N(C)S(=O)(=O)c2ccc(C(F)(F)F)cc2)CC1`, the melting point was found to be 88 °C. `CCOC(=O)c1cccc(C#CC2(O)CN3CCC2CC3)c1` (configuration not stated) came in with a melting point of 155 to 156 °C. For `COc1cc([N+](=O)[O-])ccc1F`, the melting point was 69 to 71 °C. `CC(C)(C)C(NC(=O)c1ccc(Cl)cc1)NC(=NC#N)Nc1cccc(Cl)c1` (configuration not stated) yielded a melting point of 158 to 160 °C. In turn, `CC(C)n1nc(OCC(=O)c2ccc(F)cc2)c(-c2ccc(F)cc2)c1-c1ccc(S(C)(=O)=O)cc1` displayed a melting point of 184 to 185 °C. Compound `CNC(=Nc1cccc(C(F)(F)F)c1)C(C)C` had a melting point of 52 to 54 °C.

In turn, `CN=C(NC#N)NCCCSCc1nsc(NC(=N)N)n1` came in with a melting point of 117 to 120 °C. Consider `Oc1cc(OCCCCCCCCCCOc2ccc(C(=S)c3ccc(-c4ccccc4)cc3)c(O)c2)ccc1C(=S)c1ccc(-c2ccccc2)cc1`, for which the melting point was in the range of 125 to 127 °C. To `CCCCN(C)C(=O)CS(=O)CCCCCOc1ccc(C2=C(c3ccccc3)CCCc3cc(O)ccc32)cc1` (configuration not stated) belongs 87 to 89 °C; to `Nc1cc(C(=O)O)ccc1-c1nnc(-c2ccc(C(F)(F)F)cc2)o1`, above 300 °C; to `CS(=O)(=O)c1ccc(Oc2ccc(Oc3ccccc3)cc2)nc1`, 136 to 138 °C.

Compound `CCN(CCNC(=O)Nc1cc(Cl)ccc1CCc1cc(C(C)(C)C)c(O)c(C(C)(C)C)c1)Cc1ccccc1` showed a melting point of 132 to 133 °C. To `CCCN(CCC)C1Cc2cccc3nc(N)n(c23)C1` (configuration not stated) belongs 160 to 170 °C; to `O=c1ccn(-c2cccc(C(F)(F)F)c2)nc1-c1conc1-c1ccccc1`, 217 to 219 °C; to `O=C(c1ccc(OCCN2CCCCC2)cc1)c1c(-c2ccc(O)cc2)ccc2ccccc12`, 167 to 170 °C. Compound `O=C1C(=O)c2ccc(Cl)cc2C2=C1SCC1(CCN(CC(O)Cc3ccccc3)CC1)O2` (configuration not stated) registered a melting point of 92 to 96 °C. To `O=C(O)[C@@H]1CCCN1S(=O)(=O)c1cc(Cl)cc(Cl)c1O` belongs 107 °C; to `CN1NC(Oc2cc(F)ccc2[N+](=O)[O-])=CC1C(F)(F)F` (configuration not stated), 68 to 70 °C; to `O=C(NC1CCCCC1)c1ccc(Cn2cnc3ccccc32)cc1`, 189 to 191 °C.

Compound `Fc1ccc(-n2nc(N3CCNCC3)c3ccccc32)cc1` returned a melting point of 85 to 87 °C. The compound `CCOP(=O)(Cc1ccc(NC(=O)/C=C/c2cnn(Cc3ccccc3)c2-c2ccc(F)cc2)cc1)OCC` had a melting point of 207 to 208 °C. Compound `CCOC(=O)c1c2ccc(Cl)cc2c(-c2ccccc2)n1CCN` had a melting point of 84 to 86 °C.

For the compound `c1ccc(CN(Cc2ccccc2)c2ccc3sccc3c2)cc1`, the melting point was in the range of 114 to 117 °C. Compound `CC(C)(NC(=O)c1nnc2ccc(NCCCN3CCC(OC(c4ccccc4)c4ccccc4)CC3)nn12)C(=O)O` returned a melting point of 191 to 193 °C. For `N#Cc1cnn(-c2nc(Cl)c(C(F)(F)F)cc2Cl)c1Br`, the melting point fell in the range of 121 to 122 °C.

`Nc1sc2c(c1C(=O)c1ccsc1)CCCC2` had a melting point of 133 to 135 °C.

Consider `CCOC(=O)c1c(C)n(C(=O)c2ccccc2)c2ccc(Oc3nc(OC)cc(OC)n3)c(C(=O)O)c12`, for which the melting point is 113 to 115 °C. To `O=C(Nc1ccccc1S(=O)(=O)C1CCCC1)N[C@@H](Cc1ccc(NC(=O)c2c(Cl)cncc2Cl)cc1)C(=O)O` belongs 233 °C; to `CC(C)c1cc(CCC(=O)O)n(Cc2ccc(Cl)cc2Cl)n1`, 105 to 108 °C. As to `CC(C)(C#N)Cc1ccc(-c2ccc(CC(C)(C)C#N)cc2)cc1`, the melting point is 174 to 182 °C. To `FC(F)(F)c1cc(Cl)c(-n2cc(I)c(C(F)(F)F)n2)c(Cl)c1` belongs 109 to 112 °C; to `N#Cc1ccc(CC23CCCN2C(=O)N(Cc2cc(Cl)cc(Cl)c2)C3=O)cc1` (configuration not stated), 124 °C.
